Measured values as given in patent US7253286B2, “Nitrogen-containing aromatic derivatives” (Eisai Co., Ltd, priority 2000, dated 2007).

Key:
[1] = molecular target: T1, VEGFR2 (Homo sapiens, UniProt P35968); assay: Inhibition against VEGFR2 kinase (receptor tyrosine kinase activity, HTRF method); format: biochemical; settings: His6-VEGFR2 cytoplasmic domain, biotin-poly(GT) substrate, ATP, 30° C. 10 minutes, read-out: IC50 (concentration required for 50% inhibition of VEGFR2 kinase activity)
T1 construct: coding for the cytoplasmic domain, beginning with lysine 791 and including the termination codon; made in house; host or cells: Sf9 insect cells (baculovirus, pFastBacHis)
How it was run: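 Construct: His6-tagged VEGFR2 cytoplasmic domain (from Lys791), expressed in Sf9 cells. Kinase step: biotin-poly(Glu4:Tyr1) substrate, ATP added as 10 μl of 4 μM, Hepes pH 7.4 with Mg2+/Mn2+, 30 °C for 10 min, EDTA stop. Phosphotyrosine product measured by HTRF.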

[2] = tested on: Human Umbilical Vein Endothelial Cells (HUVECs); assay: Inhibition against invasive tube formation by vascular endothelial cells in response to stimulation by angiogenic factor mixture; format: cell-based; design: key: the number of tubes formed in the absence of the test substance was designated as +++; scored on the 5-level scale of +++, ++, +, +/−, −; scored on the 5-level scale of +++, ++, +, +/−, −; scored on the 5-level scale of +++, ++, +, +/−, −; − was assigned if absolutely no tubes formed; settings: HUVEC on fibrin gel, EGF/FGF2/VEGF/HGF/TNF-α mixture, 6th day, MTT staining; for number of tubes formed in the fibrin gel (score) at 0.01 μM: test substance 0.01 μM; for number of tubes formed in the fibrin gel (score) at 0.1 μM: test substance 0.1 μM; for number of tubes formed in the fibrin gel (score) at 1.0 μM: test substance 1.0 μM
How it was run: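 HUVECs seeded on fibrin gel in Transwells were cultured with compound plus EGF, FGF2, VEGF, HGF and TNF-α in serum-free medium at 37 °C; medium with factors and compound was renewed on days 2 and 4. On day 6, MTT-stained tubes were counted microscopically and scored on a five-level scale from +++ (no-compound control) to −.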

T1 sequence (P35968 786-1356 limits assumed): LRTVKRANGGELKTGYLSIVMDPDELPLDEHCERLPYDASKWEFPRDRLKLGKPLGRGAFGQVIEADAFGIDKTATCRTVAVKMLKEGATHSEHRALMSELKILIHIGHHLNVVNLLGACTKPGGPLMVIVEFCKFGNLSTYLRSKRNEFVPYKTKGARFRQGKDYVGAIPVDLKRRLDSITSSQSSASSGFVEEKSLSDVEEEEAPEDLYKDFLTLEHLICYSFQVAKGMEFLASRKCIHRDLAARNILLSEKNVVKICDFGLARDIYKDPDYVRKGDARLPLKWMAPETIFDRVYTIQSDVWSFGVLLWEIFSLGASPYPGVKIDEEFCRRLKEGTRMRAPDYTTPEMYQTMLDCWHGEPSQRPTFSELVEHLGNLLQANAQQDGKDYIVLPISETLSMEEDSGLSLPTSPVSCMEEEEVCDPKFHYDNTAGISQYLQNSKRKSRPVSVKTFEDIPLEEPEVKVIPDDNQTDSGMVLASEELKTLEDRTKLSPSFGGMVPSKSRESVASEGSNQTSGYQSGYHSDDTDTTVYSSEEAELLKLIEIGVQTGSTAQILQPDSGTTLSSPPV

| SMILES | IC50 [1] | number of tubes formed in the fibrin gel (score) at 0.01 μM [2] | number of tubes formed in the fibrin gel (score) at 0.1 μM [2] | number of tubes formed in the fibrin gel (score) at 1.0 μM [2] |
| --- | --- | --- | --- | --- |
| NC(=O)c1cc2c(Oc3ccc(NC(=O)NC4CC4)c(F)c3)ccnc2cc1OCCCN1CCOCC1 [Example 374, 4-(4-(Cyclopropylaminocarbonyl)amino-3-fluorophenoxy)-7-(3-(4-morpholino)propoxy)-6-quinolinecarboxamide] | 8.4 nM | +/− | − | − |
| N#CCCCOc1cc2nccc(Oc3ccc(NC(=O)Nc4ccc(F)cc4F)c(F)c3)c2cc1C#N [Example 55, N-(4-(6-Cyano-7-(3-cyanopropoxy)-4-quinolyl)oxy-2-fluorophenyl)-N′-(2,4-difluorophenyl)urea] | 29 nM | +++ | +/− | +/− |
| COCCOc1cc2nccc(Oc3ccc(NC(=O)Nc4ccc(F)cc4)c(F)c3)c2cc1C#N [Example 100, N-(4-(6-Cyano-7-(2-methoxyethoxy)-4-quinolyl)oxy-2-fluorophenyl)-N′-(4-fluorophenyl)urea] | 9.6 nM | ++ | +/− | +/− |
| COc1cc2nccc(Oc3ccc(NC(=O)NC4CC4)c(Cl)c3)c2cc1C(=O)NCCS(C)(=O)=O [Example 404, N6-(2-(Methylsulfonyl)ethyl)-4-(3-chloro-4-(((cyclopropylamino)carbonyl)amino)phenoxy)-7-methoxy-6-quinolinecarboxamide] | 6.5 nM | − | − | − |
| CCNC(=O)n1ccc2cc(Oc3ccnc4cc(OC)c(C(N)=O)cc34)ccc21 [Example 316, 6-Carbamoyl-4-(1-ethylcarbamoyl-1H-indol-5-yloxy)-7-methoxyquinoline] | 6.4 nM | +/− | − | − |
